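How tested: cells in 96-well plates exposed to compound for 48 hours at five concentrations. TGI denotes the concentration required for complete inhibition of growth.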
How the values were obtained:
Assay in all cases: growth of human tumour cells (NCI), 48 h
EKVX NSCLC = system: EKVX NSCLC
HCT-116 colon = system: HCT-116 colon
HT29 colon = system: HT29 colon
LOX IMVI melanoma = system: LOX IMVI melanoma
SNB-19 CNS = system: SNB-19 CNS
UACC-62 melanoma = system: UACC-62 melanoma
DU-145 prostate = system: DU-145 prostate
HS 578T breast = system: HS 578T breast
MCF7 breast = system: MCF7 breast
MDA-MB-231 breast = system: MDA-MB-231 breast

SMILES	TGI (EKVX NSCLC) [µM]	TGI (HCT-116 colon) [µM]	TGI (HT29 colon) [µM]	TGI (LOX IMVI melanoma) [µM]	TGI (SNB-19 CNS) [µM]	TGI (UACC-62 melanoma) [µM]	TGI (DU-145 prostate) [µM]	TGI (HS 578T breast) [µM]	TGI (MCF7 breast) [µM]	TGI (MDA-MB-231 breast) [µM]
C[N+](C)=c1ccc2nc3c(ccc4ccccc43)oc-2c1	37.3	20.3	29.6	15.4	31.6	16.3				
COc1ccc(OC)c(NC2=NCCO2)c1	> 100	> 100	> 100	> 100	22.7	> 100	> 100	> 100	> 100	> 100
C/C(=N/NC(=S)Nc1cccc(Cl)c1)c1ccccn1	3.33	12.2	13.9	9.49	16.9	2.49	4.98	10.1	5.17	10.3
Cc1ccc(S(=O)(=O)NC(=O)NCCc2ccc(O)c(O)c2)cc1	> 100	> 100	> 100	> 100	> 100	> 100	> 100	> 100	> 100	> 100
C[N+](C)(C)CCOC(=O)/C=C/c1cnc[nH]1	> 500	> 500	> 500	> 500	> 500	> 500			> 500	
N=S(=O)(c1ccccc1)c1ccccc1	> 100	> 100		> 100	> 100	> 100				
Cc1nc(N)sc1C(=O)Nc1ncn[nH]1	> 100	> 100	> 100	> 100	> 100	> 100	> 100	> 100	> 100	> 100
Cn1c(=O)c2c(nc3n2CCC(=O)N3CCCCl)n(C)c1=O	> 100	> 100	> 100	> 100	> 100	> 100	> 100	> 100		> 100
O=C(OCC1CCCN2CCCCC12)c1cccnc1 (stereo not drawn)	> 100	> 100	> 100	> 100	> 100	> 100	> 100	> 100	> 100	> 100
C[C@@H](NC(=O)[C@@H]1C[C@]1(C)CO)c1cccc2ccccc12	> 100	> 100	> 100		> 100	> 100	> 100	> 100	> 100	> 100
Brc1c2nc3ccccc3nc2n2ccc3ccccc3c12	> 100	> 100		> 100	> 100	> 100				
O=C(N/N=C\c1cccs1)c1ccncc1	> 100	> 100	> 100		> 100	> 100		> 100	> 100	> 100
Oc1cc(O)c2c(c1)O[C@H](c1cc(O)c(O)c(O)c1)[C@@H](O)C2	94.9	33.2		37.9	> 100		> 100	> 100	35.2	34
COCCOC(C)C(=O)C(O)S(=O)(=O)O (stereo not drawn)	> 100	> 100	> 100		> 100	> 100	> 100	> 100	> 100	> 100
O=C1C(C(c2ccc([N+](=O)[O-])cc2)N2CCOCC2)=C(O)C(c2ccccc2)N1c1ccccc1 (stereo not drawn)	> 10	> 10	> 10	> 10	> 10	> 10	> 10	> 10	> 10	> 10
CC1(C)Oc2ccc3c(=O)cc(-c4cccs4)oc3c2C1C(=O)O (stereo not drawn)	> 100	> 100	> 100				> 100	> 100	> 100	> 100
Nc1ccc2nc(Nc3ccc(Cl)c(Cl)c3)cnc2c1	> 100	33.4	36.9	28	38.7					
Nc1nc(Nc2ccc(Cl)cc2)sc1C(=O)c1c[nH]c2ccccc12		23.1	20	43.8	38	28	38.9	71.3	31	35
N=c1n(CC(=O)NC23CC4CC(CC(C4)C2)C3)c2ccccc2n1CC(=O)NC12CC3CC(CC(C3)C1)C2	5.03	3.46	3.21		3.02	3.45				
CCCCOc1c(C(=O)O)cc(Br)cc1C(=O)O	> 100	> 100		> 100	> 100				> 100	> 100
CCCCC(=C=C(C)CO)C1CCCN1C(=O)OC(C)(C)C (stereo not drawn)	44	29.5	34.3	30.4	60.2	26.9	34.1	30.4	43.5	34
Cc1ccc(/C(O)=C/c2nc3cccnc3[nH]c2=O)cc1	> 100	> 100	> 100	> 100	> 100	> 100	> 100	> 100	> 100	> 100
CC(=O)OC12CC(C(F)(F)F)(C(F)(F)F)OC1(OC(C)=O)CC(C(F)(F)F)(C(F)(F)F)O2 (stereo not drawn)		29.7	> 100	34.9	> 100	> 100	70.4	> 100	3.73	53.2
C=C1C2C[C@@H]3OC4CC5O[C@]6(CC5OC4C(C)C3OC(=O)CC3CC[C@@H]4OC5C7OC8C[C@](CCC9CC(=C)[C@H](CCC(C[C@H]1C)O2)O9)(OC7C4O3)O[C@@H]85)C[C@@H]1O[C@@]2(CC(C)[C@@H]3OC(CC(=O)CCO)C(O)C[C@@H]3O2)CC(C)[C@@H]1O6 (stereo partly drawn)		0.00111		0.119	0.816	0.181				
C/C=C/c1cc2c(c(=O)o1)C(=O)[C@@H](O)[C@H](C)O2	31	20.1	44.6	26.4	46.1	34.1			14.8	

From PubChem BioAssay (NCI)
